Source: PubChem BioAssay AID248 (DTP/NCI, 2004)
Inconclusive results and toxic doses are left out. Cut-off read from the data, not from the text of the source: active = T/C of 150% or more; inactive = T/C below 125%.

Tested on: L1210 leukemia ip in BDF1 mice, survival T/C
Experiment: NCI In Vivo Anticancer Drug Screen. Data for tumor model L1210 Leukemia (intraperitoneal) in B6D2F1 (BDF1) mice
Details: endpoint: mean survival time, higher = longer survival
How it was run: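 Mice bearing the transplanted tumor received compound or vehicle. Survival of the treated group was divided by that of the vehicle-treated control group to give the ratio.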

[1] = dose: 200.0 mg/kg/injection, schedule: Q04DX003 (ip), vehicle: saline
[2] = dose: 400.0 mg/kg/injection, schedule: Q04DX003 (ip), vehicle: saline
[3] = dose: 100.0 mg/kg/injection, schedule: Q01DX009 (ip), vehicle: saline with Tween-80
[4] = dose: 200.0 mg/kg/injection, schedule: Q01DX009 (ip), vehicle: saline with Tween-80
[5] = dose: 100.0 mg/kg/injection, schedule: Q01DX009 (ip), vehicle: Klucel (hydroxypropylcellulose) (HPC)
[6] = dose: 100.0 mg/kg/injection, schedule: Q04DX003 (ip), vehicle: Klucel (hydroxypropylcellulose) (HPC)
[7] = dose: 200.0 mg/kg/injection, schedule: Q01DX009 (ip), vehicle: Klucel (hydroxypropylcellulose) (HPC)
[8] = dose: 200.0 mg/kg/injection, schedule: Q04DX003 (ip), vehicle: Klucel (hydroxypropylcellulose) (HPC)
[9] = dose: 400.0 mg/kg/injection, schedule: Q01DX009 (ip), vehicle: Klucel (hydroxypropylcellulose) (HPC)
[10] = dose: 400.0 mg/kg/injection, schedule: Q04DX003 (ip), vehicle: Klucel (hydroxypropylcellulose) (HPC)
[11] = dose: 100.0 mg/kg/injection, schedule: Q04DX002 (ip), vehicle: Klucel (hydroxypropylcellulose) (HPC)
[12] = dose: 200.0 mg/kg/injection, schedule: Q04DX002 (ip), vehicle: Klucel (hydroxypropylcellulose) (HPC)
[13] = dose: 400.0 mg/kg/injection, schedule: Q04DX002 (ip), vehicle: Klucel (hydroxypropylcellulose) (HPC)
[14] = dose: 100.0 mg/kg/injection, schedule: Q01DX001 (ip), vehicle: saline

Measured: T/C

CC1=NN(c2ccc(S(=O)(=O)O)cc2)C(=O)/C1=C/c1ccc(Cl)cc1
inactive: dose: 100.0 mg/kg/injection, schedule: Q01DX009 (ip), vehicle: saline sonified 105 % of control | dose: 200.0 mg/kg/injection, schedule: Q01DX009 (ip), vehicle: saline sonified 100 % of control | [1] 102 % of control | dose: 400.0 mg/kg/injection, schedule: Q01DX009 (ip), vehicle: saline sonified 104 % of control | [2] 98 % of control

Brc1ccc2c(c1)nc1n2CCC1
inactive: dose: 100.0 mg/kg/injection, schedule: Q01DX001 (ip), vehicle: acetone 105 % of control | dose: 100.0 mg/kg/injection, schedule: Q04DX003 (ip), vehicle: saline 104 % of control | dose: 200.0 mg/kg/injection, schedule: Q01DX001 (ip), vehicle: acetone 108 % of control | [1] 111 % of control | dose: 400.0 mg/kg/injection, schedule: Q01DX001 (ip), vehicle: acetone 94 % of control | [2] 101 % of control

COc1cccc(CN(CCC(=O)O)Cc2cccc(OC)c2)c1
inactive: dose: 100.0 mg/kg/injection, schedule: Q01DX009 (ip), vehicle: other 100 % of control | dose: 100.0 mg/kg/injection, schedule: Q04DX003 (ip), vehicle: other 88 % of control | dose: 200.0 mg/kg/injection, schedule: Q01DX009 (ip), vehicle: other 102 % of control | dose: 200.0 mg/kg/injection, schedule: Q04DX003 (ip), vehicle: other 88 % of control | dose: 400.0 mg/kg/injection, schedule: Q01DX009 (ip), vehicle: other 102 % of control | dose: 400.0 mg/kg/injection, schedule: Q04DX003 (ip), vehicle: other 93 % of control

CC(C)(C)C(Br)C(Br)Br (stereo not given) (tested in a mixture with another compound)
inactive: dose: 50.0 mg/kg/injection, schedule: Q01DX009 (ip), vehicle: saline with Tween-80 101 % of control | [3] 97 % of control | [4] 89 % of control

COc1cc([N+](=O)[O-])ccc1NC(=O)Nc1cccc(C(F)(F)F)c1
inactive: dose: 100.0 mg/kg/injection, schedule: Q01DX009 (ip), vehicle: gum acacia 92 % of control | dose: 200.0 mg/kg/injection, schedule: Q01DX009 (ip), vehicle: gum acacia 92 % of control

Nc1c(Br)cc(Br)cc1Br
inactive: [5] 96 % of control | [6] 106 % of control | [7] 96 % of control | [8] 92 % of control | [9] 98 % of control | [10] 97 % of control

O=C(COc1cc(Cl)c(Cl)cc1Cl)Nc1ccc(Cl)cc1
inactive: [11] 103 % of control | [12] 106 % of control | [13] 103 % of control

CCCCOP(=O)(CSCC)OCCCC
inactive: [5] 98 % of control | [7] 90 % of control | [9] 93 % of control

C=CCCCCCCC=C
inactive: dose: 50.0 mg/kg/injection, schedule: Q01DX001 (ip), vehicle: carboxymethylcellulose (CMC) 93 % of control | dose: 200.0 mg/kg/injection, schedule: Q01DX001 (ip), vehicle: carboxymethylcellulose (CMC) 88 % of control | dose: 400.0 mg/kg/injection, schedule: Q01DX001 (ip), vehicle: carboxymethylcellulose (CMC) 93 % of control

Clc1ccccc1OCC1CO1 (stereo not given)
inactive: [3] 93 % of control | dose: 100.0 mg/kg/injection, schedule: Q04DX003 (ip), vehicle: saline with Tween-80 98 % of control | [4] 100 % of control | dose: 200.0 mg/kg/injection, schedule: Q04DX003 (ip), vehicle: saline with Tween-80 98 % of control | dose: 400.0 mg/kg/injection, schedule: Q01DX009 (ip), vehicle: saline with Tween-80 97 % of control | dose: 400.0 mg/kg/injection, schedule: Q04DX003 (ip), vehicle: saline with Tween-80 103 % of control

CCOC(=O)OC(C#N)c1ccccc1 (stereo not given)
inactive: dose: 12.5 mg/kg/injection, schedule: Q01DX009 (ip), vehicle: saline with Tween-80 93 % of control | dose: 25.0 mg/kg/injection, schedule: Q01DX009 (ip), vehicle: saline with Tween-80 94 % of control

CSc1ccc(OC(=O)Nc2ccc(C)c([N+](=O)[O-])c2)cc1C
inactive: [3] 89 % of control | [4] 89 % of control

O=C(O)CNc1ccc(S(=O)(=O)c2ccc(NCC(=O)O)cc2)cc1
inactive: [14] 102 % of control | dose: 200.0 mg/kg/injection, schedule: Q01DX001 (ip), vehicle: saline 102 % of control | dose: 400.0 mg/kg/injection, schedule: Q01DX001 (ip), vehicle: saline 98 % of control

CCc1ccc(NC(=O)C(c2ccccc2)c2ccccc2)cc1
inactive: dose: 50.0 mg/kg/injection, schedule: Q04DX003 (ip), vehicle: Klucel (hydroxypropylcellulose) (HPC) 101 % of control | [5] 92 % of control | [6] 100 % of control | [7] 89 % of control | [8] 93 % of control | [9] 89 % of control | [10] 93 % of control

C[N+](C)(C)CN1C(=O)c2ccccc2C1=O
inactive: dose: 50.0 mg/kg/injection, schedule: Q01DX009 (ip), vehicle: saline 101 % of control | dose: 100.0 mg/kg/injection, schedule: Q01DX009 (ip), vehicle: saline 97 % of control | dose: 200.0 mg/kg/injection, schedule: Q01DX009 (ip), vehicle: saline 88 % of control

CC1(C)Oc2c(ccc(O)c2CN2CCCCC2)C2=C1CCCC2
inactive: [14] 89 % of control

COC1/C=C/OC2(C)Oc3c(C)c(O)c4c(O)c(c(/C=N/N5C(C)CN(Cc6ccccc6)CC5C)c(O)c4c3C2=O)NC(=O)C(C)=C/C=C/C(C)C(O)C(C)C(O)C(C)C(OC(C)=O)C1C (stereo not given)
inactive: dose: 50.0 mg/kg/injection, schedule: Q01DX009 (ip), vehicle: Klucel (hydroxypropylcellulose) (HPC) 91 % of control | [5] 93 % of control

ClCCN=Cc1ccc(Cl)cc1
inactive: [5] 96 % of control | [11] 96 % of control | [7] 91 % of control | [12] 100 % of control | [9] 96 % of control | [13] 100 % of control

O=C1NC(=S)S/C1=C/c1ccc2c(c1)OCO2
inactive: dose: 7.5 mg/kg/injection, schedule: Q01DX009 (ip), vehicle: saline with Tween-80 93 % of control | dose: 15.0 mg/kg/injection, schedule: Q01DX009 (ip), vehicle: saline with Tween-80 88 % of control | dose: 30.0 mg/kg/injection, schedule: Q01DX009 (ip), vehicle: saline with Tween-80 89 % of control

CC(=O)Nc1c(Cl)cc(Cl)cc1Cl
inactive: dose: 100.0 mg/kg/injection, schedule: Q01DX001 (ip), vehicle: saline with Tween-80 109 % of control | dose: 200.0 mg/kg/injection, schedule: Q01DX001 (ip), vehicle: saline with Tween-80 93 % of control | dose: 400.0 mg/kg/injection, schedule: Q01DX001 (ip), vehicle: saline with Tween-80 95 % of control
